Measured values: patent US20070248997A1, “METHOD OF USING ONE-D[…] MULTI-D[…] MAGNETIC RESONANCE TO IDENTIFY COMPOUNDS THAT INTERACT WITH TARGET BIOMOLECULES” (Smithkline Beecham Corporation, priority 1999, published 2007)

Target: Ni^2+ form of Peptide Deformylase (S. Aureus) (Staphylococcus aureus, UniProt P68826)
Assay: Deformylation of For-Met-Ala-Ser-OH by Ni-PDF monitored by 1H NMR over incubation times
Assay type: biochemical
Conditions: for interaction constant α between I1 and I2: 0.4 mM 8-hydroxyquinoline (I1) + 0.15 mM N-Nitro-N′-(N-phenylamino)guanidine (I2); for interaction constant α between I1 and I2 / Ki: 2.5 mM substrate, 1 uM enzyme, assuming a KM of 2.5 mM, FIG. 4; for Ki: from slopes of formate buildup, read-out: KEI (constant of inhibition)
Experimental: FIG. 1 depicts the deformylation of For-Met-Ala-Ser-OH catalyzed by the Ni^2+ form of Peptide Deformylase (S. Aureus) (herein also referred to as “PDF”) over a range of incubation times, as monitored by 1H nuclear magnetic resonance spectroscopy.
FIG. 4 depicts the deformylation of For-Met-Ala-Ser-OH catalyzed by the Ni^2+ form of Peptide Deformylase (S.Aureus) over a range of incubation times, as monitored by 1H nuclear magnetic resonance spectroscopy of the buildup of the formate (For) moiety. Four slopes are illustrated in this figure, the first one (∘) is a “control” experiment using 2.5 mM of substrate (For-Met-Ala-Ser-OH) and 1 uM of enzyme. […] The third slope (∇) contains 0.15 mM of N-Nitro-N′-(N-phenylamino)guanidine (I2) in the presence of 2.5 mM of substrate and 1 uM of enzyme. Finally the fourth slope (⋄) contains both I1 and I2 at 0.4 mM and 0.15 mM, respectively, in the presence of 2.5 mM of substrate and 1 uM of enzyme. Calculating the four slopes and using the steady-state rate equations for this system, it is straightforward to calculate the KEI1, KEI2, and α value.

Sequence of Ni^2+ form of Peptide Deformylase (S. Aureus) (P68826 whole entry): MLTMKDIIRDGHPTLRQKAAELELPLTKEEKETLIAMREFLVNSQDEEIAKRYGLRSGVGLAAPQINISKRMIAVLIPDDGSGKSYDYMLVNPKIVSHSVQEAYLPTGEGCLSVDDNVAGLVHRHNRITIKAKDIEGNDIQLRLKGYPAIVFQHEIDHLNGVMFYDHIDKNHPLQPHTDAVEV

Structure (SMILES) | interaction constant α between I1 and I2 | Ki [µM] | deformylation of For-Met-Ala-Ser-OH (rate at which product resonance peak increases) (8-hydroxyquinoline added to substrate + Ni-PDF mixture, FIG. 1)
Oc1cccc2cccnc12 [8-hydroxyquinoline] | 0.72 | 335 | slightly inhibited
N=C(NNc1ccccc1)N[N+](=O)[O-] [N-Nitro-N′-(N-phenylamino)guanidine] | 0.72 | 151 | –
